Data: patent publication US20070043000A1, “Immunosuppresive effects of pteridine derivatives” (priority 2003, published 2007)

Legend:
lymphocytes = conditions: as disclosed in WO 00/45800; cited from earlier work
CD3 = conditions: as disclosed in WO 00/45800; cited from earlier work
CD 28 = conditions: as disclosed in WO 00/45800; cited from earlier work
[1] = tested on: peripheral blood mononuclear cells (PBMC); experiment: Mixed lymphocyte reaction (MLR) test; format: cell-based, human; conditions: Table 7; same conditions as example 26
Procedure: All reagents were dissolved in 0.5 ml dimethylsulfoxide (hereinafter referred as DMSO) and further diluted in culture medium before use for the following in vitro experiments. The commercially available culture medium consisted of RPMI-1640+10% foetal calf serum (FCS). Peripheral blood mononuclear cells (hereinafter referred as PBMC) were isolated from heparinized peripheral blood by density gradient centrifugation over Lymphoprep (Nycomed, Maorstua, Norway). Allogeneic PBMC or […]-Barr Virus-transformed human B cells [commercially available under the trade name RPMI1788 (ATCC name CCL156)] which strongly express B7-1 and B7-2 antigens were used as stimulator cells after irradiation with 30 Gy. MLR was performed in triplicate wells. After 5 days incubation at 37° C., 1 μCi [^3H]-thymidine was added to each cup. After a further 16 hours incubation, cells were harvested and counted in a β-counter. Inhibition of proliferation by a compound (drug) described in some of the previous examples was counted using the formula: [formula] wherein cpm is the thymidine count per minute. TNF-Alpha and IL-1 Beta Assays

[2] = tested on: TNF-alpha production by PBMC; experiment: TNF-alpha assay, LPS-stimulated PBMC, sandwich ELISA; format: cell-based, human; conditions: Table 7; same conditions as example 26; read-out: TNFα IC50
Procedure: (§1) All reagents were dissolved in 0.5 ml dimethylsulfoxide (hereinafter referred as DMSO) and further diluted in culture medium before use for the following in vitro experiments. The commercially available culture medium consisted of RPMI-1640+10% foetal calf serum (FCS). Peripheral blood mononuclear cells (herein referred as PBMC), in response to stimulation by lipopolysaccharide (LPS), a gram-negative bacterial endotoxin, produce various […], in particular human TNF-alpha and II-1 beta. The inhibition of the activation of PBMC can be measured by the level of suppression of the production of TNF-alpha or IL-1 beta by PBMC in response to stimulation by LPS. Such inhibition measurement was performed as follows: PBMC were isolated from heparinized peripheral blood (Buffy coat) by density gradient centrifugation. LPS is then added to the PMBC suspension in complete medium (10^6 cells/ml) at a final concentration of 1 μg/ml. The compound to be tested was added at different dilution levels, and the cells were incubated at 37° C. for 72 hours. The supernatants were collected, and TNF-alpha or II-1 beta concentrations were measured with respectively an anti-TNF antibody or an anti-IL-1 beta antibody in a sandwich ELISA. The percent inhibition was calculated as: % inhibition=(pg/ml in sample−pg/ml min.)/(pg/ml max.−pg/ml min.)−1 wherein: min.: pg/ml in culture medium without test compound, and • max.: pg/ml in culture medium+LPS without test compound.

[3] = tested on: IL-1 beta production by PBMC; experiment: IL-1 beta assay, LPS-stimulated PBMC, sandwich ELISA; format: cell-based, human; conditions: Table 7; same conditions as example 26; read-out: IL1β IC50
Procedure: as §1

[4] = tested on: murine experimental allergic encephalomyelitis; experiment: Murine multiple sclerosis model (experimental allergic encephalomyelitis); format: in vivo; conditions: animals treated in the murine EAE model, 20 mg/kg/day
[5] = tested on: murine experimental allergic encephalomyelitis; conditions: mouse, in vivo; cited from earlier work

Compound | result in Mixed Lymphocyte Reaction test (lymphocytes) | result in CD3 assay (CD3) | result in CD 28 assay (CD 28) | IC50 [1] [µM] | IC50 [2] [µM] | IC50 [3] [µM] | sign of toxicity [4] | heart and kidney toxicity [5]
COc1ccc(-c2nc3c(nc2C(=O)c2ccccc2)c(=O)n(C)c(=O)n3C)cc1 [1,3-dimethyl-6-benzoyl-7-(4-methoxyphenyl)lumazine] | poor results | poor results | poor results |  |  |  |  | 
Cn1c(=O)[nH]c(=O)c2nc(-c3ccc(F)cc3)c(Cl)nc21 [Example 42, 7-chloro-6-(4-fluorophenyl)-1-methyl-lumazine] |  |  |  | 4.8 | 4.7 | 0.7 | did not show any sign of toxicity | 
CCOC(=O)CCCn1c(=O)c2nc(-c3ccccc3)c(Cl)nc2n(CC)c1=O [Example 68, 7-chloro-1-ethyl-3-(ethyl butyrate)-6-phenyl-lumazine] |  |  |  | 6.8 | 3.1 | 0.6 |  | 
CC(=O)Nn1c(=O)c2nc(-c3ccccc3)c(Cl)nc2n(C)c1=O [Example 69, 3-acetamido-7-chloro-1-methyl-6-phenyl-lumazine] |  |  |  | 4.5 | 5.8 | 3.4 |  | 
CCOC(=O)CCCn1c(=O)c2nc(-c3ccccc3)c(Br)nc2n(C)c1=O [Example 70, 7-bromo-3-(ethyl butyrate)-1-methyl-6-phenyl-lumazine] |  |  |  | 5 | 5.5 | 3.5 |  | 
CCOC(=O)Cn1c(=O)c2nc(-c3ccccc3)c(Cl)nc2n(C)c1=O [Example 71, 7-chloro-3-(ethyl acetate)-1-methyl-6-phenyl-lumazine] |  |  |  | 2.8 | 3.4 | 0.6 |  | 
CCOC(=O)CCCCn1c(=O)c2nc(-c3ccccc3)c(Cl)nc2n(C)c1=O [Example 72, 7-chloro-3-(ethyl pentanoate)-1-methyl-6-phenyl-lumazine] |  |  |  | 3.5 | 3.4 | 0.6 |  | 
CCOC(=O)CCCn1c(=O)c2nc(-c3ccc(OC)cc3)c(Cl)nc2n(C)c1=O [Example 73, 7-chloro-3-(ethyl butyrate)-1-methyl-6-(4-methoxyphenyl)-lumazine] |  |  |  | 4.9 | 0.6 | 0.5 |  | 
Cn1c(=O)n(CCN2CCOCC2)c(=O)c2nc(-c3ccccc3)c(Cl)nc21 [Example 74, 7-chloro-1-methyl-3-(2-morpholinoethyl)-6-phenyl-lumazine] |  |  |  | 4.2 | 2.6 | 0.7 |  | 
CCCCOC(=O)NCCn1c(=O)c2nc(-c3ccccc3)c(Cl)nc2n(C)c1=O [Example 75, 3-(2-butyloxycarbonyl-aminoethyl)-7-chloro-1-methyl-6-phenyl-lumazine] |  |  |  | 5.1 | 3.5 | 0.7 |  | 
COc1ccc(-c2nc3c(=O)n(C)c(=O)n(C)c3nc2Cl)cc1 [Example 76, 7-chloro-1,3-dimethyl-6-(4-methoxyphenyl)-lumazine] |  |  |  | 4.5 | 0.6 | 0.6 |  | 
Cn1c(=O)n(CCN2CCCCC2)c(=O)c2nc(-c3ccccc3)c(Cl)nc21 [Example 77, 7-chloro-1-methyl-6-phenyl-3-(2-piperidinoethyl)-lumazine] |  |  |  | 3.4 | 3.7 | 0.7 |  | 
Cn1c(=O)n(CCN2CCCC2)c(=O)c2nc(-c3ccccc3)c(Cl)nc21 [Example 78, 7-chloro-1-methyl-6-phenyl-3-(2-pyrrolidinoethyl)-lumazine] |  |  |  | 4.4 | 7.4 | 0.8 |  | 
CCOC(=O)CCCn1c(=O)c2nc(-c3ccc(OC)c(OC)c3)c(Br)nc2n(C)c1=O [Example 79, 7-bromo-6-(3,4-dimethoxyphenyl)-3-(ethylbutyrate)-1-methyl-lumazine] |  |  |  | 4.7 | 0.7 | 0.2 |  | 
CCOC(=O)CCCn1c(=O)c2nc(-c3ccc(OC)cc3)c(Br)nc2n(C)c1=O [Example 80, 7-bromo-3-(ethylbutyrate)-1-methyl-6-(4-methoxyphenyl)-lumazine] |  |  |  | 5.6 | 2.1 | 6.4 |  | 
Cn1c(=O)n(CCN2CCOCC2)c(=O)c2nc(-c3ccccc3)c(Br)nc21 [Example 81, 7-bromo-1-methyl-3-(2-morpholinoethyl)-6-phenyl-lumazine] |  |  |  | 4.7 | 1.7 | 5.4 |  | 
COc1ccc(-c2nc3c(=O)n(CCN4CCOCC4)c(=O)n(C)c3nc2Br)cc1OC [Example 82, 7-bromo-1-methyl-3-(2-morpholinoethyl)-6-(3,4dimethoxyphenyl)-lumazine] |  |  |  | 4.6 | 10 | 5.7 |  | 
CCOC(=O)CCCn1c(=O)c2nc(-c3ccc(OC)cc3)c(F)nc2n(C)c1=O [Example 83, 3-(ethyl butyrate)-7-fluoro-1-methyl-6-(4-methoxyphenyl)-lumazine] |  |  |  | 4.5 | 4.9 | 6.4 |  | 
Cn1c(=O)c2nc(-c3ccc(O)cc3)c(Br)nc2n(C)c1=O [Example 84, 7-bromo-1,3-dimethyl-6-(4-hydroxyphenyl)-lumazine] |  |  |  | 4.1 | 0.9 | 3.9 |  | 
Cn1c(=O)n(CCCC(=O)O)c(=O)c2nc(-c3ccccc3)c(Cl)nc21 [Example 85, 7-chloro-3-(n-butyric acid)-1-methyl-6-phenyl-lumazine] |  |  |  | 5 | 6.1 | 3.9 |  | 
CCn1c(=O)n(CCCC(=O)O)c(=O)c2nc(-c3ccccc3)c(Cl)nc21 [Example 86, 7-chloro-3-(n-butyric acid)-1-ethyl-6-phenyl-lumazine] |  |  |  | 4.6 | 8.4 | 2.5 |  | 
CC(C)OC(=O)CCCn1c(=O)c2nc(-c3ccccc3)c(Cl)nc2n(C)c1=O [Example 87, 7-chloro-3-(isopropyl 4-butyrate)-1-methyl-6-phenyl-lumazine] |  |  |  | 5.4 | 6.1 | 2.8 |  | 
COc1ccc(-c2nc3c(=O)n(CCCC(=O)OC(C)C)c(=O)n(C)c3nc2Br)cc1OC [Example 88, 7-bromo-6-(3,4-dimethoxyphenyl)-3-(isopropyl butyrate)-1-methyl-lumazine] |  |  |  | 4.7 | 0.7 | 7.5 |  | 
Cn1c(=O)n(CCCC(=O)OC(C)(C)C)c(=O)c2nc(-c3ccccc3)c(Cl)nc21 [Example 89, 7-chloro-3-(t-butyl butyrate)-1-methyl-6-phenyl-lumazine] |  |  |  | 4.2 | 5.6 | 2.1 |  | 
Cn1c(=O)n(CCCC(N)=O)c(=O)c2nc(-c3ccccc3)c(Cl)nc21 [Example 90, 3-(4-butyramido)-7-chloro-1-methyl6-phenyl-lumazine] |  |  |  | 3.9 | 4.9 | 1.6 |  | 
CCCNC(=O)CCCn1c(=O)c2nc(-c3ccccc3)c(Cl)nc2n(C)c1=O [Example 92, 7-chloro-1-methyl-6-phenyl-3-(N-propyl 4-butyramido)-lumazine] |  |  |  | 3.4 | 5.4 | 1.1 |  | 
O=C1c2c(O)ccc(O)c2C(=O)c2c(NCCNCCO)ccc(NCCNCCO)c21 [mitoxantrone] |  |  |  |  |  |  |  | induces heart and kidney toxicity
